These results are taken from a melting point compilation (Tetko et al.; mined from patent text by program, amines drawn as free bases though some values may be those of a salt).

A word on the melting point: it is the temperature, or range, at which the solid turns liquid. `CC1CC(C)OP(=O)(Cc2ccc(N)cc2)O1` (centres undefined) came in with a melting point of 160 to 161 °C.
With `COCCOC1=CC(=O)C(Nc2ncnc3cc(OCCOC)c(OC)cc23)=CC1=O` the figure was 211 to 212 °C.
In turn, `CCOC(=O)N1CCN(CC2CSC3=C(O2)c2ccccc2C(=O)C3=O)CC1` (centres undefined) came in with a melting point of 185 to 187 °C.
`CCCN(CCC)C(=O)NC(CS)Cc1ccccc1` (single isomer, unassigned; (+)): the melting point stood at 68 °C.
`Cc1ccc(C=NC2CCN(c3cc4c(cc3F)c(=O)c(C(=O)O)cn4-c3ccc(F)cc3)C2)cc1` (centres undefined) came in with a melting point of 233 to 234 °C.
Regarding `[N-]=[N+]=NC[C@H]1CN(c2cccc(F)c2)C(=O)O1`, the melting point is 81 to 82 °C.
With `CCCOc1ccccc1C(=O)Nc1cnccc1C(N)=O`, the melting point lay within 181 to 183 °C.
For `Nc1ncc(-c2ccc(=O)[nH]n2)c(-c2cccnc2)n1`, the melting point was determined as 256 °C.
`CN1CC=C(c2c[nH]c3ccc(NC(=S)NC(=O)c4ccccc4)cc23)CC1`: the melting point was 182 to 184 °C.
With `CC(=O)NC[C@H]1CN(c2ccc(C3=CCOCC3)c(F)c2)C(=O)O1`, the melting point was 148 to 151 °C.
For the molecule `Cc1oc(-c2ccccc2)nc1COc1ccc(COc2ccc(C(=O)c3ccccc3)c(O)c2)cc1`, the melting point is 160 to 161 °C.
With `CC(C)(C)OC(=O)N1CCC(N(Cc2ccccc2)S(N)(=O)=O)CC1` the figure was 140 to 142 °C; with `O=C(Nc1ccc(Cl)nc1)N1CC2(c3ccc(Cl)cc3)COc3cc(Cl)ccc3C2=N1` (centres undefined), over 250 °C; with `CCOC(=O)C=Cc1cncc(OCc2ccccc2)c1`, 76 to 77 °C.
As for `COC(=O)c1nc(OC(C)=O)cc2c1[nH]c1ccccc12`, the melting point lay in the range of 151 to 152 °C.
`Cc1cc(Cc2cc(C(F)(F)F)cc(C(F)(F)F)c2)ccc1NC(=O)c1cccc(Cl)c1C(=O)N[C@@H](C)CS(C)(=O)=O` returned a melting point of 155 to 158 °C.
Then `Cc1ccc(-c2ccc(S(C)(=O)=O)cc2)n1-c1ccc(F)cc1`, with 110 to 112 °C; and `COC(=O)CCCCCCCCCCCCCCCCCCCCCOS(=O)(=O)c1ccc(C)cc1`, with 74 to 76 °C.
With `CC(=O)N1CCc2cc(S(=O)(=O)n3c(COC(C)(C)C(=O)O)cc4cc(Cl)ccc43)ccc21`, the melting point was 142 to 144 °C.
In turn, `CN1Cc2c(Cl)cccc2SCC1=O` came in with a melting point of 122 to 125 °C.
For `Clc1ccc2c(c1)OCc1cccnc1C2N1CCNCC1` (centres undefined), the melting point lay within 162 to 164 °C.
`CCCCCCCCCCOC(=O)c1cc(C(=O)OCCCCCCCCCC)cc([N+](=O)[O-])c1` came in with a melting point of 48 to 50 °C.
Then `O=C(O)C1CCc2c(c3ccccc3n2C(=O)c2cccc(F)c2)C1` (centres undefined), with 170 to 171 °C; and `COc1cccc2c1C13CCN(C)C(C2)C1(O)CCC(=O)C3` (centres undefined), with 191 to 193 °C; and `CCOC(=O)C1(CC(=O)O)C(=O)C=C(OCc2ccccc2)CC1c1ccc(C)cc1` (centres undefined), with 217 °C.
On to `Cc1ccc2c(=O)c(O)cn(C)c2c1`, for which the melting point is 268 °C.
`N#Cc1ccc(C=Cc2ccc(OCC(O)CO)cc2)cc1` (centres undefined) gave a melting point of 172 to 173 °C.
In the case of `COc1cc(Nc2c(C#N)cnc3cc(NC(C)=O)c(OC)cc23)c(Cl)cc1Cl`, the melting point lay in the range of 267 to 270 °C.
Consider `CCCCN(c1c([O-])[c+](N(CCCC)C2CC(C)(C)NC(C)(C)C2)[c+]1[O-])C1CC(C)(C)NC(C)(C)C1`, for which the melting point lay within 151 to 152 °C.
Turning to `C1CCc2c(c(N3CCCC3)nn3nnnc23)C1`, the melting point was in the range of 272 to 273 °C.
Take `C=CCON=Cc1nc(-c2ccc(Cl)c(Cl)c2Cl)cn1S(=O)(=O)N(C)C`: the melting point was 87 to 88 °C.
Consider `COc1ccc(-c2ncn(CCCCCCCC(=O)O)c2-c2ccc(OC)cc2)cc1`, for which the melting point lay in the range of 142 to 143 °C.
As for `CC(=O)C1C(C(=O)c2ccc(Cl)cc2)CC2C3CCC4=CC(=O)CCC4(C)C3(F)C(O)CC21C` (centres undefined), the melting point was 280 to 281 °C.
Regarding `Fc1cccc(Cn2cnnc2S)c1`, the melting point is 124 to 125 °C.
The molecule `CCOC(=O)c1ccc(F)c([N+](=O)[O-])c1` had a melting point of 50 °C.
For the molecule `Cc1c(-c2cc(N(C)C)ncn2)ssc1=S`, the melting point came to 137 °C.
With `COC1CN=C(N2CCN(c3ccc(O)cc3)CC2)S1` (centres undefined), the melting point came to 166 °C.
The molecule `O=C(O)C(=O)c1ccc(OCCOc2ccc3ccccc3c2)cc1` came in with a melting point of 144 to 145 °C.
In turn, `Cc1ccc(S(=O)(=O)NCC(CC(=O)Nc2ccc(C(=O)O)cc2)c2ccccc2)cc1` (centres undefined) yielded a melting point of 225 to 227 °C.
For the molecule `CCN1CCN(Cc2ccc(CCn3cnc4cc(-c5ccc(Cl)cc5)sc4c3=O)cc2)C(=O)C1=O`, the melting point lay within 285 to 288 °C.
With `CCCCCCCCCCCCCCCCNC(=O)NCCCN(C)C` the figure was 78 to 79 °C.
For `CCS(=O)CC(=O)Nc1c(C)cccc1C` (centres undefined), the melting point lay within 114 to 115 °C.
`CC(C)(C)SC(=O)C=CC1C(C(=O)OC(C#N)c2ccc(F)c(Oc3ccccc3)c2)C1(C)C` (centres undefined) returned a melting point of 96 °C.
`COCc1cc(C(=O)CBr)on1` registered a melting point of 53 to 54 °C.
`COc1cc(Cc2ccc(N)c(C#N)c2)cc(OC)c1` came in with a melting point of 105 to 107 °C.
`CCOC(=O)C1(Cc2ccc(OC)c(OC)c2)C(=S)NCC1c1ccc(OC)c(OC)c1` (centres undefined): the melting point was in the range of 166 to 169 °C.
Consider `Oc1ccc(NCCCCCCCBr)cc1`, for which the melting point is 121 to 123 °C.
As to `CCc1cc(Cl)cc2c1OC(C(F)(F)F)C(C(=O)O)=C2` (centres undefined), the melting point is 197 to 199 °C.
Turning to `Cc1c(N2CCOCC2)c(F)cc2c(=O)c(C(=O)O)cn(C3CC3)c12`, the melting point was found to be 228 °C.
On to `CC(=O)CN(C(=O)Cc1ccccc1)C(C)(C)c1cccc(Cl)c1`, for which the melting point fell in the range of 98 to 100 °C.
`CCCc1cc(=O)[nH]c2cc(OC)cc(OC)c12` came in with a melting point of 193 to 196 °C.
In the case of `Cc1nc2ccccc2nc1Oc1ccc(O)cc1`, the melting point lay within 175 to 178 °C.
For `CNC(=O)C(=O)c1ccccc1COc1ccccc1`, the melting point was 78 °C.
With `COc1cc(C)c(C(=O)CCCCCCCCCCCO)c(O)c1OC` the figure was 82 °C.
For `CC(C)CCn1c(=O)[nH]c2cc(Cl)cc(Cl)c2c1=O`, the melting point lay within 227 to 229 °C.
In turn, `COc1ccccc1P1(=O)c2ccccc2CN1c1ccccc1` (centres undefined) yielded a melting point of 189 to 191 °C.
Then `CCOC(=O)c1cnn(-c2ccccc2Oc2ccc(C)cc2O)c1`, with 118 to 119 °C; and `COCCNC(=O)c1ccnc(-c2ccc3c(c2)C(c2ccc(Cl)cc2Cl)CC3)c1` (centres undefined), with 154 to 155 °C.
Then `O=C(O)Cn1c(=O)c(=O)[nH]c2ccc3ccc(-n4ccc(CN5CCN(C(c6ccccc6)c6ccccc6)CC5)c4)cc3c21`, with over 250 °C.
Then `COc1ccc2c(-c3cc(F)ccc3F)noc2c1`, with 121 to 122 °C; and `Nc1cc(Br)nc(Br)c1`, with 184 to 186 °C.
`Oc1ccccc1Nc1cc[nH]n1` showed a melting point of 163 to 164 °C.
With `O=c1[nH]c(=S)n2c3c1cnn3C(c1ccccc1)=CC2`, the melting point fell in the range of 289 to 291 °C.
With `Fc1ccc(-c2nc(S)ncc2CCN2CCC(=Cc3ccccc3F)CC2)cc1`, the melting point was in the range of 157 to 158 °C.
With `CC(C)(Oc1ccc(Cl)cc1Cl)C(=O)C(Cc1ccc(Cl)cc1)n1cncn1` (centres undefined) the figure was 104 to 108 °C; with `CCn1c(C(O)(C2CC2)C2CC2)nc(-c2ccncc2)c1-c1ccc(Cl)cc1`, 185 to 188 °C.
As to `C[C@H](COc1ccc(C=C2SC(=S)N(CC(=O)O)C2=O)cc1OCc1ccccc1)c1ccccc1`, the melting point stood at 148 °C.
As to `N#Cc1nnc2n1-c1ccc(Cl)cc1C(c1ccccc1)=NC2`, the melting point was in the range of 191 to 192 °C.
In turn, `COC(=O)c1ccc(CN(C2CCCCC2O)S(=O)(=O)c2ccc(Cl)cc2)c(F)c1F` (centres undefined) had a melting point of 123 to 125 °C.
As for `O=c1ncc(Cl)cn1COc1ccccc1`, the melting point is 146 °C.
With `O=C1Nc2ccccc2C12COc1cc3c(cc12)OCCO3` (centres undefined), the melting point was over 250 °C.
`N=C(Nc1ccc(F)cc1)Nc1nc(-c2ccccc2)cs1` came in with a melting point of 156 to 158 °C.
In turn, `COc1ccc(-c2cc3cc(F)c(F)cc3[nH]2)cc1NS(C)(=O)=O` returned a melting point of 254 to 256 °C.
On to `O=C1N=CN(c2ccc(Cl)cc2)C12CCN(Cc1ccccc1)CC2`, for which the melting point was in the range of 217 to 219 °C.
In turn, `CC1Nc2cccc3c(O)ccc(c23)S1(=O)=O` (centres undefined) returned a melting point of 245 to 246 °C.
With `CC(=O)c1ccc(S(=O)(=O)Nc2ccc(F)cn2)cc1` the figure was 151 to 152 °C; with `COc1ccc(S(=O)(=O)Nc2ccccc2NC(=O)c2ccc(OCc3ccccc3)cc2)cc1`, 148 to 149 °C; with `CON(C)C(=O)/C=C/c1c(C2CC2)nc2ccccc2c1-c1ccc(F)cc1`, 141 °C.
Then `CC(C)Oc1ccc(CCCOc2nn(Cc3ccccc3)cc2CC(=O)O)c(Oc2ncc(Cl)cc2Cl)c1`, with 111 to 113 °C; and `Clc1ccc(N2CCN(Cc3c[nH]c4ncccc34)CC2)nc1`, with 196 to 198 °C; and `Clc1nc(NCc2cccc(I)c2)c2ncn(C3CCCO3)c2n1` (centres undefined), with 180 to 182 °C.
With `CNC(=O)c1ccc(N2CCC(OC3CCN(C4CCC4)CC3)CC2)cn1` the figure was 110 °C; with `O=C1NC(CCO)CO1` (centres undefined), 90 to 91 °C; with `CN(C)CCn1c2ccc(O)cc2c2c3c(c(-c4ccccc4)cc21)C(=O)NC3=O`, 283 to 286 °C.
As to `COc1ccc(-c2nc(S)[nH]c2-c2ccncc2)cc1`, the melting point amounted to 280 °C.
The molecule `Clc1cc(N2CCOCC2)nc(-n2cnc3ccccc32)n1` returned a melting point of 178 to 181 °C.
Then `NC1=CC(=O)C(N)=C(CCCCCC2=C(N)C(=O)C=C(N)C2=O)C1=O`, with over 250 °C; and `Fc1ccc(Cn2cnc3c(-c4ccco4)nc(Cl)nc32)cc1`, with 152 to 155 °C.
Turning to `O=C(Nc1[nH]nc(-c2c(Cl)cc(C(F)(F)F)c(F)c2Cl)c1[N+](=O)[O-])C(Cl)Cl`, the melting point is 115 to 117 °C.
